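Interpolation was linear, between the two tested concentrations surrounding the appropriate level; five concentrations were tested over 48 hours in 96-well plates. TGI denotes the concentration required for complete inhibition of growth.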
How the values were obtained:
Test in all cases: NCI-60 cell line screen, 48 h
786-0 renal = system: 786-0 renal
NCI-H460 lung = system: NCI-H460 lung
NCI-H522 lung = system: NCI-H522 lung
RXF 393 renal = system: RXF 393 renal
A549 NSCLC = system: A549 NSCLC
HOP-62 NSCLC = system: HOP-62 NSCLC
OVCAR-8 ovarian = system: OVCAR-8 ovarian
SF-268 CNS = system: SF-268 CNS
HS 578T breast = system: HS 578T breast
SK-MEL-2 melanoma = system: SK-MEL-2 melanoma
K-562 leukemia = system: K-562 leukemia
SF-295 CNS = system: SF-295 CNS
NCI-H226 lung = system: NCI-H226 lung
CCRF-CEM leukemia = system: CCRF-CEM leukemia
LOX IMVI melanoma = system: LOX IMVI melanoma
CAKI-1 renal = system: CAKI-1 renal
SF-539 CNS = system: SF-539 CNS
T-47D breast = system: T-47D breast
BT-549 breast = system: BT-549 breast
NCI-H23 lung = system: NCI-H23 lung
SK-OV-3 ovarian = system: SK-OV-3 ovarian
KM12 colon = system: KM12 colon
NCI/ADR-RES ovarian = system: NCI/ADR-RES ovarian
RPMI-8226 leukemia = system: RPMI-8226 leukemia
SNB-75 CNS = system: SNB-75 CNS
IGROV1 ovarian = system: IGROV1 ovarian
MOLT-4 leukemia = system: MOLT-4 leukemia
OVCAR-4 ovarian = system: OVCAR-4 ovarian
SK-MEL-28 melanoma = system: SK-MEL-28 melanoma
DU-145 prostate = system: DU-145 prostate
UACC-257 melanoma = system: UACC-257 melanoma
SN12C renal = system: SN12C renal
UO-31 renal = system: UO-31 renal
HCC-2998 colon = system: HCC-2998 colon
OVCAR-3 ovarian = system: OVCAR-3 ovarian
TK-10 renal = system: TK-10 renal
COLO 205 colon = system: COLO 205 colon
SR leukemia = system: SR leukemia
MCF7 breast = system: MCF7 breast
MDA-MB-435 = system: MDA-MB-435
U251 CNS = system: U251 CNS
HT29 colon = system: HT29 colon
ACHN renal = system: ACHN renal
PC-3 prostate = system: PC-3 prostate
HCT-15 colon = system: HCT-15 colon
HL-60(TB) leukemia = system: HL-60(TB) leukemia
UACC-62 melanoma = system: UACC-62 melanoma
EKVX NSCLC = system: EKVX NSCLC
MALME-3M melanoma = system: MALME-3M melanoma
M14 melanoma = system: M14 melanoma
MDA-MB-231 breast = system: MDA-MB-231 breast
SNB-19 CNS = system: SNB-19 CNS
OVCAR-5 ovarian = system: OVCAR-5 ovarian
HCT-116 colon = system: HCT-116 colon
SW-620 colon = system: SW-620 colon

Structure (SMILES): O=C(CNC(=O)c1ccccc1)Oc1c(Cl)c(Cl)c(Cl)c(Cl)c1Cl
- TGI (786-0 renal): > 100 µM
- TGI (NCI-H460 lung): > 100 µM
- TGI (NCI-H522 lung): 83.8 µM
- TGI (RXF 393 renal): > 100 µM
- TGI (A549 NSCLC): > 100 µM
- TGI (HOP-62 NSCLC): > 100 µM
- TGI (OVCAR-8 ovarian): 64 µM
- TGI (SF-268 CNS): > 100 µM
- TGI (HS 578T breast): 67.6 µM
- TGI (SK-MEL-2 melanoma): 94.1 µM
- TGI (K-562 leukemia): > 100 µM
- TGI (SF-295 CNS): 79.9 µM
- TGI (NCI-H226 lung): 88.6 µM
- TGI (CCRF-CEM leukemia): > 100 µM
- TGI (LOX IMVI melanoma): > 100 µM
- TGI (CAKI-1 renal): 54.9 µM
- TGI (SF-539 CNS): 95.1 µM
- TGI (T-47D breast): > 100 µM
- TGI (BT-549 breast): 58.1 µM
- TGI (NCI-H23 lung): > 100 µM
- TGI (SK-OV-3 ovarian): > 100 µM
- TGI (KM12 colon): 45.6 µM
- TGI (NCI/ADR-RES ovarian): 82.5 µM
- TGI (RPMI-8226 leukemia): 78.3 µM
- TGI (SNB-75 CNS): > 100 µM
- TGI (IGROV1 ovarian): 63.5 µM
- TGI (MOLT-4 leukemia): > 100 µM
- TGI (OVCAR-4 ovarian): > 100 µM
- TGI (SK-MEL-28 melanoma): > 100 µM
- TGI (DU-145 prostate): 49.9 µM
- TGI (UACC-257 melanoma): 54.9 µM
- TGI (SN12C renal): > 100 µM
- TGI (UO-31 renal): 45.2 µM
- TGI (HCC-2998 colon): 60.6 µM
- TGI (OVCAR-3 ovarian): 53.3 µM
- TGI (TK-10 renal): 94.1 µM
- TGI (COLO 205 colon): > 100 µM
- TGI (SR leukemia): > 100 µM
- TGI (MCF7 breast): > 100 µM
- TGI (MDA-MB-435): 94.1 µM
- TGI (U251 CNS): > 100 µM
- TGI (HT29 colon): > 100 µM
- TGI (ACHN renal): 65.1 µM
- TGI (PC-3 prostate): 61.4 µM
- TGI (HCT-15 colon): > 100 µM
- TGI (HL-60(TB) leukemia): 77.5 µM
- TGI (UACC-62 melanoma): 53.8 µM
- TGI (EKVX NSCLC): 48 µM
- TGI (MALME-3M melanoma): 57.1 µM
- TGI (M14 melanoma): > 100 µM
- TGI (MDA-MB-231 breast): 66.1 µM
- TGI (SNB-19 CNS): > 100 µM
- TGI (OVCAR-5 ovarian): > 100 µM
- TGI (HCT-116 colon): > 100 µM
- TGI (SW-620 colon): 67.1 µM
